Experimental data taken from US20050080054A1, “Treating androgen decline in aging male (ADAM)-associated conditions with SARMS” (priority 2002, published 2005).
Values joined by “and” are separate entries in the source; they are usually repeats but may differ in a detail not shown here. Identical values can stand only once. “Also recorded” adds a separate entry of the source.

Assays:
Type in all cases: in vivo, rat
[1] = Plasma FSH levels in male rats of varying hormonal status; conditions: 0.5 mg/day; for Plasma FSH levels: 14 days, n = 5
Text: (§1) Compound VI and Compound VII were synthesized and characterized in the laboratory of Dr. Duane Miller at the University of Tennessee, Memphis, Tenn. Male Sprague-Dawley rats were purchased from Harlan Biosciences (Indianapolis, Ind.). The animals were maintained on a 12-h cycle of light and dark with food and water available ad libitum. All animal studies were reviewed and approved by the Animal Care and Use Committee of The Ohio State University, and conformed to the Principles of Laboratory Animal Care (NIH publication #85-23, revised 1985). Immature male Sprague-Dawley rats weighing 187 to 214 g were randomly distributed into 9 groups of 5 animals. One day before the initiation of drug treatment, groups 4 through 6 and groups 7 through 9 received unilateral or bilateral orchidectomy, respectively, via a midline scrotal incision. […] All drugs given to animals were freshly prepared as solutions in polyethylene glycol 300 (PEG 300). Groups 4 and 7 received treatment with vehicle alone (i.e., PEG 300). Animals in groups 3, 6, and 9 received testosterone propionate (TP, 0.5 mg/day) via implantation of subdermal osmotic pumps (Model 2002, Durect Corporation, Palo Alto, Calif.). Animals in groups 2, 5, and 8 received Compound VI or Compound VII (0.5 mg/day) via implantation of subdermal osmotic pumps. After 14 days of drug treatment, rats were weighed, anesthetized, and sacrificed. Blood samples were collected by venipuncture of the abdominal aorta. Plasma samples were analyzed for testosterone, FSH, LH and osteocalcin. Testosterone concentrations were measured by AniLytics Inc. (Gaithersburg, Md.). FSH and LH levels were measured by the National Hormone and Peptide Program (Dr. A F Parlow, UCLA, CA). Plasma osteocalcin levels were determined using a commercially available rat osteocalcin EIA kit from Biomedical Technologies Inc. (Stoughton, Mass.). The ventral prostates, seminal vesicles, and levator ani muscle were removed and weighed. Osmotic pumps were also removed from animals to check for correct pump operation. The weights of all organs were normalized to body weight, and analyzed for any statistically significant differences between groups using single-factor ANOVA with the alpha value set a priori at p<0.05. The weights of prostates and seminal vesicles were used as indices for evaluation of androgenic activity, and the levator ani muscle weight was used to evaluate the anabolic activity. Statistical analyses of parameters from complete blood count or serum chemical profiling, wherever applicable, were performed by single-factor ANOVA with the alpha value set a priori at p<0.05.

[2] = Plasma osteocalcin levels in male rats of varying hormonal status; conditions: 0.5 mg/day; for Plasma osteocalcin levels: 14 days, n = 5
Text: as §1

[3] = tested on: androgen-responsive tissues (prostate, seminal vesicles, levator ani muscle); experiment: Androgenic and anabolic activity: weight of androgen-responsive tissues in intact, hemi-orchidectomized and castrated rats; conditions: for Levator Ani weight / Prostate weight / Seminal Vesicle weight: n = 5
Procedure: FIG. 3: Androgenic and Anabolic activity of Compound VI and Compound VII in rats. Male rats with normal testicular function (no surgical manipulation) were left untreated (Intact), treated with compound VI (0.5 mg/day), compound VII (0.5 mg/day) or testosterone proprionate (TP, 0.5 mg/day), and the weight of androgen-responsive tissues (prostate—FIG. 3A, semimal vesicles—FIG. 3B, and levator ani muscle—FIG. 3C) was determined.
(§2) FIG. 4: Androgenic and Anabolic activity of Compound VI and Compound VII in rats. Male rats received unilateral orchidectomy (Hemi-orchidectomized) and were left untreated (Intact), treated with vehicle alone (PEG 300), Compound VI (0.5 mg/day), Compound VII (0.5 mg/day), or testosterone proprionate (TP, 0.5 mg/day), and the weight of androgen-responsive tissues (prostate—FIG. 4A, semimal vesicles—FIG. 4B, and levator ani muscle—FIG. 4C) was determined.
as §2, with “5:” for “4:”, “bilateral” for “unilateral”, “(Castrated)” for “(Hemi-orchidectomized)”, “5A,” for “4A,”, “5B,” for “4B,”, “5C)” for “4C)”
as §1

[4] = tested on: myosin heavy chain (MHC) IIb mRNA; experiment: Myosin heavy chain (MHC) IIb mRNA expression in masseter muscle by RT-PCR; conditions: masseter muscle of intact female rats; untreated control = 100%
Text: MHC is the predominant protein in skeletal muscle encoded by a multigene family expressed in a tissue-specific and developmentally regulated manner [Adams et al 1999]. In steady state, mRNA expression usually parallels the pattern of MHC protein expression. Because transcription of MHC mRNA occurs in advance of MHC protein translation, and the increased sensitivity of RT-PCR compared to western blotting, rapid changes in mRNA expression can be detected and used to analyze the subtle dynamic effects of muscle anabolism [Wright et al 1997].
The masseter muscle dissected from untreated intact female rats was set as the control level (representing 100%) of MHC IIb expression (FIG. 7A). Intact female rats treated with androgens were evaluated against the untreated controls for the effect of treatment on MHC IIb from masseter.

[5] = tested on: female rats after ovariectomy; experiment: Bone mineral content (DEXA) in female rats after ovariectomy
Procedure: One hundred ten female rats were assigned to one of eleven treatment groups. Groups 1-8 were ovariectomized on day one of the study. Groups 9-11 were intact animals. Groups 1-6 received Compound VI by daily subcutaneous injection at doses of 0.1, 0.3, 0.5, 0.75, 1.0, and 3 mg/day, respectively. Groups 7 and 11 received dihydrotestosterone (DHT) at a dose of 1 mg/day. Groups 8 and 9 were ovariectomized and intact control groups, respectively. Group 10 received Compound VI at a dose of 1.0 mg/day. All animals were treated for 120 days. Bone mineral content (BMC) was determined using dual energy x-ray absorptiometry (DEXA) on days 1, 30, 60, 90, and 120.

[6] = castrated rats, 0.5 mg/day, 14 days
[7] = hemi-orchidectomized animals, 0.5 mg/day
[8] = hemi-orchidectomized rats, 0.5 mg/day, 14 days
[9] = intact rats, 0.5 mg/day, 14 days

For `CC(=O)Nc1ccc(OC[C@](C)(O)C(=O)Nc2ccc([N+](=O)[O-])c(C(F)(F)F)c2)cc1` [Compound VI], which “effect on plasma FSH levels” value ([1]; TP statement for castrated male rats) is on record?
Its value is “no effect”.

And the “Plasma FSH levels” value ([1]; castrated male rats)?
Its value is 69.6 ± 11.7 ng/mL.

What about the “Plasma FSH levels” value ([1]; hemi-orchidectomized male rats) of the same compound?
The value was 15.2 ± 2.2 ng/mL.

And the “Plasma FSH levels” value ([1]; intact male rats)?
The value was 14.4 ± 1.7 ng/mL.

And the “effect on plasma osteocalcin levels” value ([2]; Compound VI statement for hemi-orchidectomized and castrated animals)?
Its value is “significant increase”.

What about the Plasma osteocalcin levels ([2]; castrated male rats) of the same compound?
The Plasma osteocalcin levels was 94.215 ± 12.568 ng/mL.

What about the Plasma osteocalcin levels ([2]; hemi-orchidectomized male rats) of the same compound?
The Plasma osteocalcin levels was 89.804 ± 15.517 ng/mL.

What about the Plasma osteocalcin levels ([2]; intact male rats) of the same compound?
The Plasma osteocalcin levels was 55.584 ± 9.715 ng/mL.

What about the “increasing the weight of the prostate, compared with TP” value ([3]; castrated animals) of the same compound?
Its value is “less effective than TP”.

What about the “Levator Ani weight” value [3, 6] of the same compound?
The value was 100.65 % of intact control.

What about the Prostate weight [3, 6] of the same compound?
Its Prostate weight is 32.55 % of intact control.

And the “Seminal Vesicle weight” value [3, 6]?
Its value is 16.47 % of intact control.

What about the “agonist character in levator ani muscle” value ([3]; from organ weights in rats) of the same compound?
Its value is “full agonist”.

What about the “agonist character in prostate and seminal vesicles” value ([3]; from organ weights in rats) of the same compound?
Its value is “partial agonist”.

What about the “effect on weight of the levator ani muscle” value ([3]; hemi-orchidectomized and castrated animals) of the same compound?
Its value is “significant increases”.

What about the “size of the levator ani muscle, of that observed in untreated hemi-orchidectomized animals” value [3, 7] of the same compound?
Its value is 108%.

And the “size of the prostate, of that observed in untreated hemi-orchidectomized animals” value [3, 7]?
The value was 75%.

And the “size of the seminal vesicles, of that observed in untreated hemi-orchidectomized animals” value [3, 7]?
The value was 79%.

And the “Levator Ani weight” value [3, 8]?
The value was 108.10 % of intact control.

And the Prostate weight [3, 8]?
The Prostate weight was 74.69 % of intact control.

What about the “Seminal Vesicle weight” value [3, 8] of the same compound?
Its value is 78.55 % of intact control.

And the “effect on prostate weights” value ([3]; intact and hemi-orchidectomized animals)?
Its value is “significant decreases in prostate weights”.

And the “change in size of levator ani muscle” value ([3]; intact animals, 0.5 mg/day)?
The value was “no statistically significant changes”.

And the “change in size/weight of the seminal vesicles” value ([3]; intact animals, 0.5 mg/day)?
Its value is “no statistically significant changes; also recorded: no effect”.

What about the “Levator Ani weight” value [3, 9] of the same compound?
The value was 109.15 % of intact control.

What about the Prostate weight [3, 9] of the same compound?
Its Prostate weight is 79 % of intact control and 79.41 % of intact control.

And the “Seminal Vesicle weight” value [3, 9]?
The value was 90.54 % of intact control.

And the adverse pharmacologic effects ([3]; male rats, 0.5 mg/day, 14 days)?
The adverse pharmacologic effects was “No adverse pharmacologic effects were observed”.

And the “MHC type IIb transcription, of untreated control” value [4]?
Its value is 137%.

What about the “whole body BMC” value ([5]; FIG. 9) of the same compound?
Its value is “increased whole body BMC in a dose-dependent and time-dependent manner”.

And the “effect at L2-L4 vertebra and proximal femur” value ([5]; FIG. 10)?
Its value is “protective effect”.

What about the “potency comparison Compound VI versus DHT” value ([5]; ovariectomized female rat bone model) of the same compound?
The value was “more potent than DHT”.

And the “bone resorption” value ([5]; ovariectomized female rats, 120 days)?
Its value is “inhibited bone resorption”.

And the “increase in BMC” value ([5]; ovariectomized female rats, 0.1 mg/day s.c. daily, treated for 120 days (group 1))?
Its value is 22.9%.

What about the “increase in BMC” value ([5]; ovariectomized female rats, 0.3 mg/day s.c. daily, treated for 120 days (group 2)) of the same compound?
Its value is 26.0%.

And the “increase in BMC” value ([5]; ovariectomized female rats, 0.5 mg/day s.c. daily, treated for 120 days (group 3))?
Its value is 28.5%.

What about the “increase in BMC” value ([5]; ovariectomized female rats, 0.75 mg/day s.c. daily, treated for 120 days (group 4)) of the same compound?
Its value is 30.5%.

And the “increase in BMC” value ([5]; ovariectomized female rats, 1.0 mg/day, treated for 120 days (group 5; DHT 1 mg/day))?
Its value is 30.0%.

And the “increase in BMC” value ([5]; ovariectomized female rats, 3 mg/day s.c. daily, treated for 120 days (group 6))?
The value was 40.1%.
